The NIST ThermoML archive (doi:10.1021/acs.jced.6b00121)

Experiment: xn = mol fraction of the nth substance listed
Details: 100 kPa, Liquid; for viscosity: Falling or rolling sphere viscometry; for mass density: Vibrating tube method

CCCCCCCCCCC [undecane] + CCCCCO
Details	mass density [kg/m3]	viscosity [mPa·s]
283.15 K, x1 = 0.0999	808.13	4.269
283.15 K, x1 = 0.2	796.68	3.406
283.15 K, x1 = 0.3026	786.76	2.731
283.15 K, x1 = 0.4001	778.65	2.21
283.15 K, x1 = 0.5022	771.41	1.884
283.15 K, x1 = 0.5976	765.49	1.694
283.15 K, x1 = 0.6984	760.02	1.551
283.15 K, x1 = 0.801	755.27	1.452
283.15 K, x1 = 0.8822	751.87	1.413
283.15 K, x1 = 1	747.78	1.371
288.15 K, x1 = 0.0999	804.49	3.679
288.15 K, x1 = 0.2	792.98	2.958
288.15 K, x1 = 0.3026	783.04	2.39
288.15 K, x1 = 0.4001	774.92	1.945
288.15 K, x1 = 0.5022	767.66	1.689
288.15 K, x1 = 0.5976	761.74	1.535
288.15 K, x1 = 0.6984	756.3	1.419
288.15 K, x1 = 0.801	751.55	1.335
288.15 K, x1 = 0.8822	748.15	1.287
288.15 K, x1 = 1	744.06	1.249
293.15 K, x1 = 0.0999	800.81	3.187
293.15 K, x1 = 0.2	789.27	2.58
293.15 K, x1 = 0.3026	779.3	2.103
293.15 K, x1 = 0.4001	771.17	1.743
293.15 K, x1 = 0.5022	763.91	1.529
293.15 K, x1 = 0.5976	757.99	1.404
293.15 K, x1 = 0.6984	752.55	1.308
293.15 K, x1 = 0.801	747.81	1.236
293.15 K, x1 = 0.8822	744.41	1.176
293.15 K, x1 = 1	740.35	1.145
298.15 K, x1 = 0.0999	797.12	2.777
298.15 K, x1 = 0.2	785.54	2.26
298.15 K, x1 = 0.3026	775.54	1.862
298.15 K, x1 = 0.4001	767.4	1.571
298.15 K, x1 = 0.5022	760.13	1.395
298.15 K, x1 = 0.5976	754.22	1.295
298.15 K, x1 = 0.6984	748.78	1.214
298.15 K, x1 = 0.801	744.05	1.153
298.15 K, x1 = 0.8822	740.67	1.08
298.15 K, x1 = 1	736.64	1.062
303.15 K, x1 = 0.0999	793.4	2.428
303.15 K, x1 = 0.2	781.78	1.995
303.15 K, x1 = 0.3026	771.75	1.656
303.15 K, x1 = 0.4001	763.6	1.428
303.15 K, x1 = 0.5022	756.32	1.283
303.15 K, x1 = 0.5976	750.42	1.202
303.15 K, x1 = 0.6984	745	1.095
303.15 K, x1 = 0.801	740.28	1.026
303.15 K, x1 = 0.8822	736.92	0.999
303.15 K, x1 = 1	732.93	0.982
308.15 K, x1 = 0.0999	789.65	2.136
308.15 K, x1 = 0.2	777.98	1.768
308.15 K, x1 = 0.3026	767.93	1.481
308.15 K, x1 = 0.4001	759.77	1.29
308.15 K, x1 = 0.5022	752.5	1.153
308.15 K, x1 = 0.5976	746.6	1.062
308.15 K, x1 = 0.6984	741.2	0.998
308.15 K, x1 = 0.801	736.49	0.951
308.15 K, x1 = 0.8822	733.14	0.922
308.15 K, x1 = 1	729.23	0.91
313.15 K, x1 = 0.0999	785.86	1.887
313.15 K, x1 = 0.2	774.15	1.572
313.15 K, x1 = 0.3026	764.08	1.33
313.15 K, x1 = 0.4001	755.91	1.17
313.15 K, x1 = 0.5022	748.64	1.058
313.15 K, x1 = 0.5976	742.76	0.976
313.15 K, x1 = 0.6984	737.36	0.924
313.15 K, x1 = 0.801	732.67	0.881
313.15 K, x1 = 0.8822	729.34	0.859
313.15 K, x1 = 1	725.53	0.847
318.15 K, x1 = 0.0999	782.03	1.675
318.15 K, x1 = 0.2	770.28	1.409
318.15 K, x1 = 0.3026	760.19	1.2
318.15 K, x1 = 0.4001	752.02	1.065
318.15 K, x1 = 0.5022	744.75	0.972
318.15 K, x1 = 0.5976	738.88	0.902
318.15 K, x1 = 0.6984	733.51	0.856
318.15 K, x1 = 0.801	728.83	0.819
318.15 K, x1 = 0.8822	725.53	0.801
318.15 K, x1 = 1	721.82	0.79
323.15 K, x1 = 0.0999	–	1.468
323.15 K, x1 = 0.2	–	1.266
323.15 K, x1 = 0.3026	–	1.087
323.15 K, x1 = 0.4001	–	0.974
323.15 K, x1 = 0.5022	–	0.896
323.15 K, x1 = 0.5976	–	0.836
323.15 K, x1 = 0.6984	–	0.796
323.15 K, x1 = 0.801	–	0.764
323.15 K, x1 = 0.8822	–	0.748
323.15 K, x1 = 1	–	0.74
